According to patent publication EP4559896A1, “PH-SENSITIVE CATIONIC LIPID AND LIPID NANOPARTICLE” (National University Corporation Hokkaido University, priority 2022, dated 2024):

Tests used:
[1] = average particle size and polydispersity index by dynamic light scattering; type: physicochemical; settings: Fluc mRNA-loaded lipid nanoparticles
Protocol: The average particle size (number average value), ζ-average particle size, and polydispersity index (PdI) of the lipid nanoparticles in PBS(-) (pH 7.4), and the zeta potential in 10 mM HEPES buffer (pH 7.4) were measured using an analyzer "Zetasizer Nano ZS ZEN3600" (manufactured by Malvern) utilizing dynamic light scattering.

[2] = encapsulation rate of lipid nanoparticles (RiboGreen); type: physicochemical; settings: Fluc mRNA-loaded lipid nanoparticles, TOT/DSPC/chol/PEG-DMG=65/15/20/1.5 (mol%)
Protocol: The encapsulation rate of the lipid nanoparticles was determined by measuring the amount of encapsulated nucleic acid (mRNA) using RiboGreen (manufactured by Life Technologies), which is an RNAintercalator. The amount of mRNA was quantified based on a calibration curve prepared from a dilution series solution of mRNA at a known concentration.
Specifically, 10 mM HEPES buffer (pH 7.4), 10 w/v% Triton X-100, and RiboGreen were mixed at 978.8 µL, 20 µL, and 1.25 µL per 10 wells, respectively, to obtain a Triton(+) buffer. A Triton(-) buffer was obtained in replacing Triton X-100 with 10 mM HEPES buffer (pH 7.4). 100 µL/well of the sample was added to a black 96-well plate for fluorescence measurement, and 100 µL/well of Triton(+) buffer or Triton(-) buffer was added. After the plate was gently shaken on a shaking incubator (SI-300, manufactured by AS ONE) (700 rpm, 30 seconds), the fluorescence intensity of each well was measured using a microplate reader (VARIOSKAN LUX, manufactured by Thermo Fisher Scientific) (wavelength Ex/Em=500 nm/525 nm), and the nucleic acid encapsulation rate (%) was calculated.

[3] = TOT-4/DSPC/chol/PEG-DMG=65/15/20/1.5, CL4F6/DSPC/chol/PEG-DMG=50/10/40/1.5 (mol%)
[4] = TOT/DSPC/chol/PEG-DMG=65/15/20/1.5 (mol%)

Compound | Number Average Particle Size [1, 3] | PdI [1, 3] | ζ-Average Particle Size [1, 3] | PdI [1, 4] | ζ-Average Particle Size [1, 4] | Encapsulation Rate [2]
7-(4-(diisopropylamino)butyl)-13-((2-hexylnonanoyl)oxy)-7-hydroxytridecyl 2-hexyldecanoate [CL4F6, reference compound] | 59.4 nm | 99.0 | 90.7 nm |  |  | 
CCCCCCCC/C=C\CCCCCCCC(=O)OCC(COC(=O)CCCCCCC/C=C\CCCCCCCC)(COC(=O)CCCCCCC/C=C\CCCCCCCC)NC(=O)CCN(C)C [TOT-1, 2-(3-(dimethylamino)propanamido)-2-((oleoyloxy)methyl)propane-1,3-diyl dioleate] |  |  |  | 0.324 | 138.0 nm | 85.9%
CCCCCCCC/C=C\CCCCCCCC(=O)OCC(COC(=O)CCCCCCC/C=C\CCCCCCCC)(COC(=O)CCCCCCC/C=C\CCCCCCCC)NC(=O)CN [TOT-6, 2-(2-aminoacetamido)-2-((oleoyloxy)methyl)propane-1,3-diyl dioleate] |  |  |  | 0.190 | 102.5 nm | 95.4%
CCCCCCCC/C=C\CCCCCCCC(=O)OCC(COC(=O)CCCCCCC/C=C\CCCCCCCC)(COC(=O)CCCCCCC/C=C\CCCCCCCC)NC(=O)[C@@H](N)CO [TOT-8, 2-((S)-2-amino-3-hydroxypropanamido)-2-((oleoyloxy)methyl)propane-1,3-diyl dioleate] |  |  |  | 0.213 | 87.1 nm | 85.7%
CCCCCCCC/C=C\CCCCCCCC(=O)OCC(COC(=O)CCCCCCC/C=C\CCCCCCCC)(COC(=O)CCCCCCC/C=C\CCCCCCCC)NC(=O)C1CCN(C)C1 (stereo not drawn) [TOT-20, 2-(1-methylpyrrolidine-3-carboxamide)-2-((oleoyloxy)methyl)propane-1,3-diyl dioleate] |  |  |  | 0.263 | 201.8 nm | 94.7%
